Source: the supplement of paper PMC10307832

Key:
Experiment in all cases: relative viability (nuclei count vs DMSO), 5 days (fraction); higher = more cells survive
Crenolanib + Alpelisib = compound: CC1(COc2ccc3c(c2)ncn3-c2ccc3cccc(N4CCC(N)CC4)c3n2)COC1 [Crenolanib] + Cc1nc(NC(=O)N2CCC[C@H]2C(N)=O)sc1-c1ccnc(C(C)(C)C(F)(F)F)c1 [Alpelisib] (partner 2 µM)
Summary of the method: (§1)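 Lung cancer cell lines were pin-tool dosed in 1536-well plates on the day after seeding, with either a lone drug or a fixed anchor-drug dose plus five library-drug doses (not always all listed) in √10 steps. Nuclei were counted on 4× images after 5 days. Relative viability is the ratio of treated-well to vehicle-well nuclei counts, with each value a median of duplicate plates.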

Crenolanib + Olaparib = compound: CC1(COc2ccc3c(c2)ncn3-c2ccc3cccc(N4CCC(N)CC4)c3n2)COC1 [Crenolanib] + O=C(c1cc(Cc2n[nH]c(=O)c3ccccc23)ccc1F)N1CCN(C(=O)C2CC2)CC1 [Olaparib] (partner 8 µM)
Summary of the method: as §1

Tivantinib + Bortezomib = compound: O=C1NC(=O)[C@@H](c2cn3c4c(cccc24)CCC3)[C@@H]1c1c[nH]c2ccccc12 [Tivantinib] + CC(C)C[C@H](NC(=O)[C@H](Cc1ccccc1)NC(=O)c1cnccn1)B(O)O [Bortezomib] (partner 0.002 µM)
Summary of the method: as §1

Tivantinib + Linsitinib = compound: O=C1NC(=O)[C@@H](c2cn3c4c(cccc24)CCC3)[C@@H]1c1c[nH]c2ccccc12 [Tivantinib] + C[C@]1(O)C[C@@H](c2nc(-c3ccc4ccc(-c5ccccc5)nc4c3)c3c(N)nccn32)C1 [Linsitinib] (partner 1 µM)
Summary of the method: as §1

Row | Cell Line | relative viability (Crenolanib + Alpelisib; first compound 0.01 µM) | relative viability (Crenolanib + Alpelisib; first compound 0.03162 µM) | relative viability (Crenolanib + Alpelisib; first compound 0.1 µM) | relative viability (Crenolanib + Alpelisib; first compound 0.3162 µM) | relative viability (Crenolanib + Alpelisib; first compound 1 µM) | relative viability (Crenolanib + Olaparib; first compound 0.01 µM) | relative viability (Crenolanib + Olaparib; first compound 0.03162 µM) | relative viability (Crenolanib + Olaparib; first compound 0.1 µM) | relative viability (Crenolanib + Olaparib; first compound 0.3162 µM) | relative viability (Crenolanib + Olaparib; first compound 1 µM) | relative viability (Tivantinib + Bortezomib; first compound 0.01 µM) | relative viability (Tivantinib + Bortezomib; first compound 0.03162 µM) | relative viability (Tivantinib + Bortezomib; first compound 0.1 µM) | relative viability (Tivantinib + Linsitinib; first compound 0.01 µM) | relative viability (Tivantinib + Linsitinib; first compound 0.03162 µM) | relative viability (Tivantinib + Linsitinib; first compound 0.1 µM) | relative viability (Tivantinib + Linsitinib; first compound 0.3162 µM) | relative viability (Tivantinib + Bortezomib; first compound 0.3162 µM)
1 | HCC-78 | 0.357 | 0.312 | 0.348 | 0.402 | 0.338 | 0.998 | 0.86 | 0.678 | 0.826 | 0.745 | 0.593 | 0.319 | 0.38 | 0.553 | 0.422 | 0.477 | 0.286 | 
2 | HOP-62 | 0.851 | 0.985 | 1.03 | 1.06 | 0.941 | 0.398 | 0.192 | 0.45 | 0.387 | 0.33 | 0.948 |  | 0.591 | 1.02 |  | 1.11 | 1.15 | 1.05
3 | NCI-H2405 | 1 | 0.76 | 0.496 | 0.68 | 0.691 | 0.919 |  | 0.742 | 0.919 | 0.86 | 0.582 | 0.982 | 0.848 | 1.16 | 1.02 | 0.941 | 0.739 | 0.976
4 | PC-3 [JPC-3] | 1.07 | 0.982 | 0.981 | 1.02 | 1.04 | 1.26 |  | 1.01 | 1.06 | 1.06 | 0.839 | 0.899 | 0.863 | 0.929 | 1.04 | 1.01 | 0.708 | 0.667
5 | NCI-H1666 | 0.932 | 0.969 | 1.04 | 1.08 | 1.02 | 0.764 | 0.717 | 0.723 | 0.692 | 0.749 | 0.856 | 0.828 | 0.744 | 0.699 | 0.807 | 0.741 | 0.735 | 0.803
6 | HCC-15 | 0.873 | 0.829 | 0.888 | 0.814 | 0.836 | 0.828 | 0.734 | 0.726 | 0.631 | 0.63 | 0.949 | 0.995 | 0.943 | 0.89 | 0.796 | 0.857 | 0.911 | 1.04
7 | NCI-H1651 | 0.89 | 0.903 | 0.893 | 0.982 | 0.867 | 0.177 | 0.186 | 0.198 | 0.171 | 0.166 | 0.957 | 1.03 | 0.918 | 0.937 | 1.01 | 1.04 | 0.814 | 0.942
8 | NCI-H1395 | 1.1 | 1.14 | 1.1 | 0.914 | 0.938 | 0.495 | 0.453 | 0.543 | 0.439 | 0.45 |  |  |  | 1.1 | 1.22 | 0.926 | 0.857 | 
9 | EPLC-272H |  | 0.879 | 0.821 | 1.03 | 0.938 | 0.854 | 0.868 | 0.605 | 1.11 | 0.989 | 1.16 | 0.813 | 0.741 | 1.07 | 1.22 | 1.19 | 0.931 | 0.608
10 | LXF-289 | 1.02 | 1.04 | 1.01 | 1.09 | 1.02 | 1.08 | 0.954 | 1 | 1.16 | 1.08 | 1.04 | 1 | 0.922 | 0.982 | 0.971 | 0.906 | 0.927 | 1.04
11 | NCI-H1437 | 0.999 | 1.07 | 0.944 | 1.18 | 0.949 | 0.632 | 0.636 | 0.621 | 0.647 | 0.591 | 0.503 | 0.344 | 0.425 | 1.06 | 1.04 | 0.958 | 1.04 | 0.434
12 | HCC-827 | 1.04 | 1.01 | 0.916 | 1.03 | 0.992 | 0.702 | 0.659 | 0.655 | 0.634 | 0.677 | 1.02 | 1.12 | 1.03 | 1.03 | 0.991 | 0.96 | 0.953 | 1.11
13 | NCI-H1650 |  |  |  |  |  | 0.677 | 0.84 | 0.659 | 0.82 | 0.607 | 0.215 | 0.213 | 0.225 |  |  |  |  | 0.176
14 | HCC-366 | 0.484 | 0.655 | 0.351 | 0.428 | 0.406 | 0.414 | 0.362 | 0.344 | 0.509 | 0.332 | 0.996 | 1.16 | 1.03 | 0.634 | 0.543 | 0.542 | 0.585 | 1.03
15 | EKVX | 0.893 | 0.96 | 0.862 | 0.965 | 0.99 | 0.93 | 0.849 | 0.841 | 0.965 | 0.809 | 1.22 | 1 | 0.928 | 1 | 0.898 | 0.915 | 0.25 | 0.6
16 | NCI-H2126 | 0.8 | 0.752 | 0.761 | 0.787 | 0.715 | 0.928 | 0.91 | 0.893 | 0.994 | 0.952 | 1.09 | 1.11 | 1.09 | 0.713 | 0.677 | 0.671 | 0.578 | 1.06
17 | LK-2 | 0.637 | 0.924 | 1.1 | 0.956 | 0.997 | 0.837 | 0.572 | 0.655 | 1.06 | 0.585 |  |  |  | 0.816 |  | 0.497 | 0.355 | 
18 | NCI-H1563 | 0.99 | 0.924 | 1.1 | 1.07 | 0.905 |  |  |  |  |  | 0.831 | 0.748 | 0.897 | 1.22 | 1.25 | 1.07 | 1.1 | 0.809
19 | COR-L23 | 0.854 | 0.78 | 0.602 | 0.966 | 0.731 | 0.321 | 0.342 | 0.307 | 0.347 | 0.291 | 0.977 | 0.93 | 0.942 | 0.914 | 0.884 | 0.862 | 0.848 | 0.996
